The results in this text go back to patent US10538516B2, “Oxadiazole derivative and pharmaceutical containing same” (National Center for Geriatrics and Gerontology, priority 2015, dated 2020).

The target in this experiment is T1, GAβ-dependent amyloid fibril formation (Human Aβ1-40 + GM1-containing liposome) (Homo sapiens, UniProt P05067).
T1 construct: Human Aβ1-40 (cat. #4307-v, prepared by Peptide Institute); purchased Peptide Institute 4307-v
In words: Thioflavin T (ThT) assay of GAβ-dependent amyloid fibril formation (Aβ1-40 with GM1-containing liposome). Format: biochemical. The procedure, abridged: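 Human Aβ1-40 (75 μM stock) pre-incubated 10 min at room temperature with compound (75 or 15 μM solution), then GM1-containing cholesterol/sphingomyelin liposome added and incubated 37° C, 18 hours. Fibrils quantified by ThT fluorescence (ex 430/em 490 nm, pH 8.5 glycine buffer); inhibition as ratio to compound-free control.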

The mark [1] stands for this setting: read-out: ThT Inhibitory activity (% inhibition).
The mark [2] stands for this setting: @25 μM, read-out: ThT Inhibitory activity (% inhibition).
[3] abbreviates: inhibition rate against amyloid fibril formation, final concentration of the compound 25 μM, read-out: Inhibitory activity ABC evaluation.

Where two headings read alike, the source gives them in different places. Where only a bound is given, the exact number is not on record here.

T1 sequence (P05067 672-711 limits assumed): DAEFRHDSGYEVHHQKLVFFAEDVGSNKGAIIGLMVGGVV

With `O=C1CC(c2nc(-c3ccc4c(c3)OC(F)(F)O4)no2)CN1c1ccc(Cl)cc1` (centres unmarked) [Compound 32, 1-(4-chlorophenyl)-4-{3-(2,2-difluoro-benzo[d][1,3]dioxol-5-yl)-1,2,4-oxadiazol-5-yl}pyrrolidin-2-one], the inhibition at 5 µM under setting [1] is 43%. Moreover, the inhibition at 25 µM runs as follows: under setting [2], 86%; under setting [3], > 80%.

For the compound `N[C@@H](Cc1c[nH]c2ccccc12)c1nc(-c2ccc(OC(F)(F)F)cc2)no1` [Compound 25, (S)-2-(1H-indole-3-yl)-1-[3-(4-trifluoromethoxyphenyl)-1,2,4-oxadiazole-5-yl]ethane-1-amine], under setting [3], the inhibition at 25 µM is > 80%.

Consider `O=C(N[C@@H](CO)c1nc(-c2ccc(C(F)(F)F)cc2)no1)c1ccc2ccccc2c1` [Compound 202, N-[(1S)-2-hydroxy-1-{3-[4-(trifluoromethyl)phenyl]-1,2,4-oxadiazol-5-yl}ethyl]naphthalene-2-carboxamide], for which, under setting [3], the inhibition at 25 µM lay in the range of 40 to 80%.

For the compound `O=C(N[C@@H](CO)c1nc(-c2cc(F)cc(F)c2)no1)c1ccc(F)cc1` [Compound 218, N-[(1S)-1-[3-[3,5-difluorophenyl)-1,2,4-oxadiazol-5-yl]-2-hydroxyethyl]-4-fluorobenzamide], the inhibition at 25 µM under setting [3] was 40 to 80%.

In the case of `O=C(Cc1ccc(F)cc1)NC(CO)c1nc(-c2ccc(C(F)(F)F)cc2)no1` (centres unmarked) [Compound 187, 2-(4-fluorophenyl)-N-(2-hydroxy-1-{3-[4-(trifluoromethyl)phenyl]-1,2,4-oxadiazol-5-yl}ethyl)acetamide], under setting [3], the inhibition at 25 µM lay in the range of 40 to 80%.

On to `CCCN(C(=O)CCc1nc(-c2ccc(O)cc2)no1)c1cccc(Cl)c1` [Compound 19, N-(3-chlorophenyl)-3-{3-(4-hydroxyphenyl)-1,2,4-oxadiazol-5-yl}-N-propylpropanamide], for which the inhibition at 25 µM under setting [3] lay within 40 to 80%.

Take `O=C(N[C@@H](CO)c1nc(-c2ccc(C(F)F)cc2)no1)c1ccc(F)cc1` [Compound 166, N-[(1S)-1-{3-[4-(difluoromethyl)phenyl]-1,2,4-oxadiazol-5-yl}-2-hydroxyethyl]-4-fluorobenzamide]: under setting [3], the inhibition at 25 µM lay within 40 to 80%.

Turning to `O=C1CC(c2nnn(-c3ccc(OC(F)(F)F)cc3)n2)CN1c1ccc(Cl)cc1` (centres unmarked) [Compound 122, 1-(4-chlorophenyl)-4-{2-[4-(trifluoromethoxy)phenyl]-2H-tetrazol-5-yl}pyrrolidin-2-one], the inhibition at 25 µM under setting [3] is < 40%.

Turning to `N#Cc1cccc(-c2nnc([C@H](CO)NC(=O)c3ccc(Cl)cc3)o2)c1` [Compound 106, (S)-4-chloro-N-(1-(5-(3-cyanophenyl)-1,3,4-oxadiazol-2-yl)-2-hydroxyethyl) benzamide], the inhibition at 25 µM under setting [3] was in the range of 40 to 80%.

For the compound `O=C(N[C@@H](CO)c1nc(-c2ccc3[nH]ccc3c2)no1)c1ccc(F)cc1` [Compound 175, 4-fluoro-N-[(1S)-2-hydroxy-1-[3-(1H-indol-5-yl)-1,2,4-oxadiazol-5-yl]ethyl] benzamide], under setting [3], the inhibition at 25 µM was > 80%.

Turning to `O=C(N[C@@H](CO)c1nc(-c2ccc(C(F)(F)F)cc2)no1)C1CNc2ccccc2O1` (stereo partly drawn) [Compound 192, N-[(1S)-2-hydroxy-1-{3-[4-(trifluoromethyl)phenyl]-1,2,4-oxadiazol-5-yl}ethyl]-3,4-dihydro-2H-1,4-benzoxazine-2-carboxamide], the inhibition at 25 µM under setting [3] was > 80%.

Regarding `O=C(NCCc1nc(-c2c[nH]c3ccccc23)no1)c1ccc(Cl)cc1` [Compound 71, N-[2-{3-(1H-indol-3-yl)-1,2,4-oxadiazol-5-yl}ethyl]-4-chloro-benzamide], the inhibition at 25 µM under setting [3] fell in the range of 40 to 80%.

With `O=C(NC(CO)c1nc(-c2ccc(C(F)(F)F)cc2)no1)c1cccc2cc[nH]c12` (centres unmarked) [Compound 184, N-(2-hydroxy-1-{3-[4-(trifluoromethyl)phenyl]-1,2,4-oxadiazol-5-yl}ethyl)-1H-indole-7-carboxamide], the inhibition at 25 µM under setting [3] lay within 40 to 80%.

On to `O=C(c1ccc(Cl)cc1)N(CCO)[C@@H](CO)c1nc(-c2ccc(OC(F)(F)F)cc2)no1` [Compound 96, (S)-4-chloro-N-(2-hydroxy-1-{3-[4-(trifluoromethoxy)phenyl]-1,2,4-oxadiazol-5-yl}ethyl)-N-(2-hydroxyethyl)benzamide], for which, under setting [3], the inhibition at 25 µM lay in the range of 40 to 80%.

`O=C(NC(CO)c1nc(-c2ccc(C(F)(F)F)cc2)no1)c1cc2ccccc2[nH]1` (centres unmarked) [Compound 182, N-(2-hydroxy-1-{3-[4-(trifluoromethyl)phenyl]-1,2,4-oxadiazol-5-yl}ethyl)-1H-indole-2-carboxamide]: the inhibition at 25 µM is 64% under setting [2] and 40 to 80% under setting [3].

On to `O=C1CC[C@@H](c2nc(-c3ccc(OC(F)(F)F)cc3)no2)N1C(=O)c1ccc(Cl)cc1` [Compound 84, (S)-1-(4-chloro-benzoyl)-5-[3-{4-(trifluoromethoxy)phenyl}-1,2,4-oxadiazol-5-yl]pyrrolidin-2-one], for which the inhibition at 25 µM under setting [3] was 40 to 80%.

For the compound `O=C(N[C@@H](CO)c1nc(-c2ccc(C(F)(F)F)cc2)no1)c1ccc(Cl)cc1` [Compound 129, (S)-4-chloro-N-(2-hydroxy-1-(3-(4-(tri-fluoromethyl)phenyl)-1,2,4-oxadiazol-5-yl)ethyl)benzamide], the inhibition at 5 µM under setting [1] came out at 68%. Moreover, the inhibition at 25 µM under setting [2] came out at 86%; the inhibition at 25 µM (final concentration of the compound 25 μM, ratio of ThT fluorescence intensity with/without compound, 37° C. for 18 hours, read-out: inhibition rate against amyloid fibril formation (inhibitory activity on a scale of A to C)) is > 80%; the inhibition at 25 µM under setting [3] was > 80%.

For `O=C(N[C@@H](CO)c1nc(-c2ccc(C(F)(F)F)c(F)c2)no1)c1ccc(F)cc1` [Compound 217, 4-fluoro-N-[(1S)-1-{3-[3-fluoro-4-(trifluoromethyl)phenyl]-1,2,4-oxadiazol-5-yl}-2-hydroxyethyl] benzamide], the inhibition at 25 µM under setting [3] was 40 to 80%.

Regarding `COc1ccc(-c2noc(C3CC(=O)N(c4ccc(Cl)cc4)C3)n2)cn1` (centres unmarked) [Compound 54, 1-(4-chlorophenyl)-4-{3-(6-methoxy-pyridin-3-yl)-1,2,4-oxadiazol-5-yl}pyrrolidin-2-one], the inhibition at 25 µM under setting [3] is 40 to 80%.

On to `NCC(NC(=O)c1ccc(Cl)cc1)c1nnc(-c2ccc(OC(F)(F)F)cc2)o1` (centres unmarked) [Compound 116, N-(2-amino-1-{5-[4-(trifluoromethoxy)phenyl]-1,3,4-oxadiazol-2-yl}ethyl)-4-chlorobenzamide], for which the inhibition at 25 µM under setting [3] was > 80%.

`CC(C)(NC(=O)c1ccc(Cl)cc1)c1nc(-c2ccc(OC(F)(F)F)cc2)no1` [Compound 20, 4-chloro-N-(2-[3-{4-(trifluoromethoxy)phenyl}-1,2,4-oxadiazol-5-yl]propan-2-yl)benzamide]: under setting [3], the inhibition at 25 µM is 40 to 80%.

In the case of `O=C(N[C@H](CO)c1nc(-c2ccc(C(F)(F)F)cc2)no1)c1ccc(F)cc1` [Compound 212, 4-fluoro-N-[(1R)-2-hydroxy-1-{3-[4-(trifluoromethyl)phenyl]-1,2,4-oxadiazol-5-yl}ethyl]benzamide], under setting [3], the inhibition at 25 µM lay within 40 to 80%.

As for `NC(Cc1c[nH]cn1)c1nc(-c2ccc(OC(F)(F)F)cc2)no1` (centres unmarked) [Compound 37, 2-(1H-imidazol-4-yl)-1-[3-{4-(trifluoromethoxy)phenyl}-1,2,4-oxadiazol-5-yl]ethan-1-amine], the inhibition at 25 µM under setting [3] is < 40%.

Consider `O=C(N[C@@H](CO)c1nc(-c2ccc(OC(F)(F)F)cc2)no1)c1ccccc1` [Compound 92, (S)-N-(2-hydroxy-1-[3-{4-(tri-fluoromethoxy)phenyl}-1,2,4-oxadiazol-5-yl]ethyl)benzamide], for which, under setting [1], the inhibition at 5 µM amounted to 51%. Moreover, the inhibition at 25 µM runs as follows: under setting [2], 81%; under setting [3], > 80%.

On to `O=C(c1ccc(Cl)cn1)N1C[C@H](O)C[C@H]1c1nc(-c2ccc(OC(F)(F)F)cc2)no1` [Compound 60, (5-chloropyridin-2-yl)((2S,4R)-4-hydroxy-2-[3-{4-(trifluoro-methoxy)phenyl}-1,2,4-oxadiazol-5-yl]pyrrolidin-1-yl)methanone], for which the inhibition at 25 µM under setting [3] was < 40%.

Consider `O=C(N[C@@H](CO)c1nnc(-c2ccc(O)c(F)c2)o1)c1ccc(Cl)cc1` [Compound 120, (S)-4-chloro-N-(1-(5-(3-fluoro-4-hydroxyphenyl)-1,3,4-oxadiazol-2-yl)-2-hydroxy-ethyl)benzamide], for which the inhibition at 25 µM under setting [3] is < 40%.

Turning to `O=C(N[C@@H](CO)c1nnc(-c2ccc(OC(F)(F)F)cc2)o1)c1ccc(Cl)cc1` [Compound 104, (S)-4-chloro-N-(2-hydroxy-1-{5-[4-(trifluoromethoxy)phenyl]-1,3,4-oxadiazol-2-yl}ethyl)benzamide], the inhibition at 25 µM was 75% under setting [2] and 40 to 80% under setting [3].

Turning to `COc1ccc(CN2CC(c3nc(-c4ccc(OC(F)(F)F)cc4)no3)CC2=O)cc1` (centres unmarked) [Compound 50, 1-(4-methoxybenzyl)-4-[3-{4-(trifluoro-methoxy)phenyl}-1,2,4-oxadiazol-5-yl] pyrrolidin-2-one], under setting [3], the inhibition at 25 µM is 40 to 80%.

Take `O=C(N[C@@H](CO)c1nc(-c2ccc(C3(F)COC3)cc2)no1)c1ccc(F)cc1` [Compound 190, 4-fluoro-N-[(1S)-1-{3-[4-(3-fluorooxetan-3-yl)phenyl]-1,2,4-oxadiazol-5-yl}-2-hydroxyethyl] benzamide]: the inhibition at 25 µM runs as follows: under setting [2], 67%; under setting [3], 40 to 80%.

`O=C(N[C@@H](CO)c1nc(-c2c[nH]c3ccc(C(F)(F)F)cc23)no1)c1ccc(F)cc1` [Compound 262, 4-fluoro-N-[(1S)-2-hydroxy-1-{3-[5-(trifluoromethyl)-1H-indol-3-yl]-1,2,4-oxadiazol-5-yl}ethyl] benzamide]: the inhibition at 25 µM under setting [3] is 40 to 80%.

Turning to `O=C(N[C@@H](CO)c1nc(-c2c[nH]c3ccc(Cl)cc23)no1)c1ccc(Cl)cn1` [Compound 254, 5-chloro-N-[(1S)-1-[3-(5-chloro-1H-indol-3-yl)-1,2,4-oxadiazol-5-yl]-2-hydroxyethyl] pyridine-2-carboxamide], the inhibition at 25 µM under setting [3] was in the range of 40 to 80%.
